Assay results reported in publication PMC8849072, “Sudapyridine (WX-081), a Novel Compound against Mycobacterium tuberculosis” (Microbiology Spectrum, 2022).
Converted amounts (≈) assume the structure as drawn.

Columns and labels:
[1] = test system: M. tuberculosis susceptible strain 14241; test: MIC by microplate alamarBlue assay (MABA); format: cell-based, Mycobacterium tuberculosis; settings: for MIC: Mycobacterium tuberculosis
[2] = test system: M. tuberculosis susceptible strain 14242; test: MIC by microplate alamarBlue assay (MABA); format: cell-based, Mycobacterium tuberculosis; settings: for MIC: Mycobacterium tuberculosis
[3] = test system: M. tuberculosis susceptible strain 14280; test: MIC by microplate alamarBlue assay (MABA); format: cell-based, Mycobacterium tuberculosis; settings: for MIC: Mycobacterium tuberculosis
[4] = test system: M. tuberculosis susceptible strain 14286; test: MIC by microplate alamarBlue assay (MABA); format: cell-based, Mycobacterium tuberculosis; settings: for MIC: Mycobacterium tuberculosis
[5] = test system: M. tuberculosis susceptible strain 14480; test: MIC by microplate alamarBlue assay (MABA); format: cell-based, Mycobacterium tuberculosis; settings: for MIC: Mycobacterium tuberculosis
M. tuberculosis H37Rv [6] = test: MIC by microplate alamarBlue assay (MABA); format: cell-based, Mycobacterium tuberculosis; settings: for MIC: Mycobacterium tuberculosis, H37RV
[7] = Pharmacokinetic study in mice; format: in vivo, BALB/c mice; settings: Mice; for AUC(0-inf): read-out: AUC0-inf; for AUC(0-t): read-out: AUC0-last; for half-life: plasma; for At 96 h lung/plasma: lung: lung exposure at 96 h (first number of the pair); for At 96 h lung/plasma: plasma: plasma exposure at 96 h (second number of the pair)
Protocol: (§1) The BALB/c mice, rats, and beagle dogs were used in the PK study and fasted overnight before dosing. Animal doses were administered in two ways. […] Plasma samples were collected from three animals at each time point. Plasma concentrations were determined by liquid chromatography-tandem mass spectrometry (LC-MS/MS). The bioanalytical method by LC-MS/MS for pharmacokinetic (PK) studies in animal and toxicokinetic (TK) in tox studies have been validated. The total area under the concentration-time curve (AUC0-inf), the elimination half-time (t1/2), the peak concentration (Cmax), and the time to reach peak concentration (Tmax) of samples were determined directly from the experimental data using WinNonlin V6.2.1.

[8] = Pharmacokinetic study in rats; format: in vivo, rat; settings: Rat; for At 96 h lung/plasma: lung: lung exposure at 96 h (first number of the pair); for At 96 h lung/plasma: plasma: plasma exposure at 96 h (second number of the pair); for AUC(0-inf): read-out: AUC0-inf; for AUC(0-t): read-out: AUC0-last; for half-life: plasma
Protocol: as §1

[9] = cited from earlier work
[10] = test system: M. tuberculosis susceptible strain 14242; test: MBC determination (CFU-based); settings: 7 days incubation, 3 log10 CFU decrease
M. tuberculosis H37Rv [11] = test: MBC determination (CFU-based); settings: 7 days incubation, 3 log10 CFU decrease
[12] = 14-day repeated oral dose toxicity and toxicokinetic head-to-head study in beagle dogs; format: in vivo, beagle dog; settings: 14 days; for ECG: QT interval / cTnI: 200 mg/kg; for cTnI: one of three males, all others BLQ
[13] = molecular target: T1, human ether-á-go-go-related (hERG) ion channel (Homo sapiens, UniProt Q12809); test: hERG manual patch-clamp assay in hERG-CHO cell; format: cell-based
T1 construct: expressed in transfected cells; host or cells: hERG-CHO cell (CHO cells expressing hERG)
Protocol: A human ether-á-go-go-related (hERG) ion channel in vitro assay was performed in Shanghai Institute of Materia Medica, Shanghai, for the evaluation of cardiac liability testing. The assay was a manual patch-clamp method using electrophysiology in an hERG-CHO cell.

[14] = BALB/c, mouse, in vivo, Iv. 1.0 mg/kg
[15] = BALB/c, mouse, in vivo, Po. 6.25 mg/kg
[16] = beagle dogs, 200 mg/kg oral, listed as bedaquiline fumarate

T1 sequence (Q12809 whole entry): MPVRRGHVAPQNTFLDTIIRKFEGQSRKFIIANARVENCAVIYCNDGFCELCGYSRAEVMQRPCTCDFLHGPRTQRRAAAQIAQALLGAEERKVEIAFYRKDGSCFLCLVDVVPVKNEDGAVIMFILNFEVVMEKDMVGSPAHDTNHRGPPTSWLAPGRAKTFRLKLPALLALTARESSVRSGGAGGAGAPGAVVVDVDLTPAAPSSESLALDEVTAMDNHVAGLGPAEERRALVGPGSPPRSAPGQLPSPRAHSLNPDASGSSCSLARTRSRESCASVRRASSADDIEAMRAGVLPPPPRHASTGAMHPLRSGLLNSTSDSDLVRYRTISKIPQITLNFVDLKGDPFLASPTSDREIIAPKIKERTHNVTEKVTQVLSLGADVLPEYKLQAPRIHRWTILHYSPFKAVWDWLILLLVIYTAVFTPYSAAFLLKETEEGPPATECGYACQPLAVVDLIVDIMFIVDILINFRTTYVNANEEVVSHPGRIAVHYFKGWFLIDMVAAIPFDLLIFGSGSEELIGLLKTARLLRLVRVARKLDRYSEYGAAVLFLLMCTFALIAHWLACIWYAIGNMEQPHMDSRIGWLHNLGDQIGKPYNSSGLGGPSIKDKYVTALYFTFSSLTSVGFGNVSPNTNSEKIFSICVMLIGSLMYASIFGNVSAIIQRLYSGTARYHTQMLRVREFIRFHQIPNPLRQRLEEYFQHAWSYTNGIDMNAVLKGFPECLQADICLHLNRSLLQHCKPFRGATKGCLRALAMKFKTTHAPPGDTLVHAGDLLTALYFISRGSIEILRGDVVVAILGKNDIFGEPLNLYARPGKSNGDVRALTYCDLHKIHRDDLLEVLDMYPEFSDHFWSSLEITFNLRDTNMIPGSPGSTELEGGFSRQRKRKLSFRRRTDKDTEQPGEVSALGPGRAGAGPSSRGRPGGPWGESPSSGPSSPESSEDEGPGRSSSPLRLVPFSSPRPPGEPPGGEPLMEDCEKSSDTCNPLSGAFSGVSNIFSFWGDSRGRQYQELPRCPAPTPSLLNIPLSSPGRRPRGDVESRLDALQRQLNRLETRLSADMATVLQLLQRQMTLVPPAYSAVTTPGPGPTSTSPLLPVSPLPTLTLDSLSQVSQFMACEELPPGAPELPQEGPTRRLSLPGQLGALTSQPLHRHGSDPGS

CO[C@H]1/C=C/O[C@@]2(C)Oc3c(C)c(O)c4c(O)c(c(/C=N/N5CCN(C)CC5)c(O)c4c3C2=O)NC(=O)/C(C)=C\C=C\[C@H](C)[C@H](O)[C@@H](C)[C@@H](O)[C@@H](C)[C@H](OC(C)=O)[C@@H]1C [RFP, rifampicin]
MIC [1]: 0.035 µg/mL (≈ 0.0425 µM) | MIC [2]: 0.066 µg/mL (≈ 0.0802 µM) | MIC [3]: 0.057 µg/mL (≈ 0.0693 µM) | MIC [4]: < 0.02 µg/mL | MIC [5]: 0.046 µg/mL (≈ 0.0559 µM) | MIC (M. tuberculosis H37Rv [6]): 0.014 µg/mL (≈ 0.017 µM)

NC[C@H]1O[C@H](O[C@H]2[C@H](O)[C@@H](O[C@H]3O[C@H](CO)[C@@H](O)[C@H](N)[C@H]3O)[C@H](N)C[C@@H]2N)[C@H](O)[C@@H](O)[C@@H]1O [KM, kanamycin]
MICs [1]: 2.417 µg/mL | MICs [2]: 1.146 µg/mL | MICs [3]: 1.219 µg/mL | MICs [4]: 1.154 µg/mL | MICs [5]: 1.907 µg/mL | MICs (M. tuberculosis H37Rv [6]; H37Rv): 0.730 µg/mL

COc1nc2ccc(Br)cc2cc1[C@@H](c1ccccc1)[C@@](O)(CCN(C)C)c1cccc2ccccc12 [BDQ, bedaquiline]
MIC [1]: 0.029 µg/mL (≈ 0.0522 µM) | MIC [2]: 0.031 µg/mL (≈ 0.0558 µM) | MIC [3]: 0.053 µg/mL (≈ 0.0954 µM) | MIC [4]: 0.043 µg/mL (≈ 0.0774 µM) | MIC [5]: 0.037 µg/mL (≈ 0.0666 µM) | MIC (M. tuberculosis H37Rv [6]): 0.012 µg/mL (≈ 0.0216 µM) | AUC(0-inf) [7, 14]: 2160 ng·h/mL | AUC(0-t) [7, 14]: 2100 ng·h/mL | Vd ([7]; BALB/c, mouse, in vivo, Iv. 1.0 mg/kg, read-out: Vdss): 6.21 L/kg | AUC(0-inf) [7, 15]: 6360 ng·h/mL | AUC(0-t) [7, 15]: 6040 ng·h/mL | Cmax ([7]; BALB/c, mouse, in vivo, Po. 6.25 mg/kg, read-out: Cmax): 608 ng/mL | bioavailability ([7]; BALB/c, mouse, in vivo, Po. 6.25 mg/kg, read-out: F): 47.1% | Tmax ([7]; BALB/c, mouse, in vivo, Po. 6.25 mg/kg, read-out: Tmax): 5.33 h | half-life ([7]; BALB/c, mouse, Iv. 1.0 mg/kg): 21.3 h | half-life ([7]; BALB/c, mouse, Po. 6.25 mg/kg): 47.6 h | At 96 h lung/plasma: lung ([7]; Iv. 1.0 mg/kg): 27.1 | At 96 h lung/plasma: plasma ([7]; Iv. 1.0 mg/kg): 1.31 | At 96 h lung/plasma: lung ([7]; Po. 6.25 mg/kg): 135 | At 96 h lung/plasma: plasma ([7]; Po. 6.25 mg/kg): 4.56 | At 96 h lung/plasma: lung ([8]; Iv. 1.0 mg/kg): 62.9 | At 96 h lung/plasma: plasma ([8]; Iv. 1.0 mg/kg): 1.89 | At 96 h lung/plasma: lung ([8]; Po. 5.0 mg/kg): 58.8 | At 96 h lung/plasma: plasma ([8]; Po. 5.0 mg/kg): 1.52 | AUC(0-inf) ([8]; in vivo, Iv. 1.0 mg/kg): 1930 ng·h/mL | AUC(0-t) ([8]; in vivo, Iv. 1.0 mg/kg): 1830 ng·h/mL | Vd ([8]; in vivo, Iv. 1.0 mg/kg, read-out: Vdss): 10.3 L/kg | AUC(0-inf) ([8]; in vivo, Po. 5.0 mg/kg): 2680 ng·h/mL | AUC(0-t) ([8]; in vivo, Po. 5.0 mg/kg): 2610 ng·h/mL | Cmax ([8]; in vivo, Po. 5.0 mg/kg, read-out: Cmax): 354 ng/mL | bioavailability ([8]; in vivo, Po. 5.0 mg/kg, read-out: F): 27.7% | Tmax ([8]; in vivo, Po. 5.0 mg/kg, read-out: Tmax): 0.83 h | half-life ([8]; Iv. 1.0 mg/kg): 37.6 h | half-life ([8]; Po. 5.0 mg/kg): 29.3 h | elimination half-life [9]: 5.5 months | MBCs [10]: 0.156 µg/mL | MBCs (M. tuberculosis H37Rv [11]): 0.156 µg/mL

COc1c(N2C[C@@H]3CCCN[C@@H]3C2)c(F)cc2c(=O)c(C(=O)O)cn(C3CC3)c12 [MFX, moxifloxacin]
MIC [1]: 0.122 µg/mL (≈ 0.304 µM) | MIC [2]: 0.037 µg/mL (≈ 0.0922 µM) | MIC [3]: 0.035 µg/mL (≈ 0.0872 µM) | MIC [4]: 0.039 µg/mL (≈ 0.0972 µM) | MIC (M. tuberculosis H37Rv [6]): 0.045 µg/mL (≈ 0.112 µM)

NNC(=O)c1ccncc1 [INH, isoniazid]
MIC [1]: 0.034 µg/mL (≈ 0.248 µM) | MIC [2]: 0.028 µg/mL (≈ 0.204 µM) | MIC [3]: 0.024 µg/mL (≈ 0.175 µM) | MIC [4]: 0.03 µg/mL (≈ 0.219 µM) | MIC [5]: < 0.02 µg/mL | MIC (M. tuberculosis H37Rv [6]): 0.031 µg/mL (≈ 0.226 µM)

COc1nc2ccc(Br)cc2cc1[C@@H](c1ccccc1)[C@@](O)(CCN(C)C)c1cccc2ccccc12.O=C(O)/C=C/C(=O)O [Bedaquiline fumarate, bedaquiline fumarate]
mortality and moribundity ([12]; 200 mg/kg oral once daily, male and female dogs): did not result in mortality and moribundity | ECG: HR ([12]; beagle dogs, 200 mg/kg oral): An increased incidence of first- and second-degree atrioventricular block | qualitative ECG changes associated with oral administration ([12]; beagle dogs, 200 mg/kg oral): increased incidence of first and second-degree atrioventricular (AV) block | ECG: QT interval ([12]; beagle dogs, 200 mg/kg oral): Significant QT interval prolongation | ECG: QT interval [12, 16]: significant QTc interval prolongation | cTnI ([12]; beagle dogs, 200 mg/kg oral): 440 (1/3 male) pg/mL | cTnI [12, 16]: 440 pg/mL | IC50 ([13]; parent compound): > 30000 nM

CNCC[C@@](O)(c1cccc2ccccc12)[C@H](c1ccccc1)c1cc2cc(Br)ccc2nc1OC [BDQ-M2]
IC50 ([13]; metabolites): 1730 nM
